Consider twelve molecules from ChEMBL document CHEMBL1134874, “Identification of a novel partial inhibitor of dopamine transporter among 4-substituted 2-phenylquinazolines” (Bioorg Med Chem Lett, 2002).

In experiment [1] the target is Sodium-dependent serotonin transporter (Rattus norvegicus, UniProt P31652). Kind of experiment: Inhibition of [125I]RTI-55 binding to Serotonin transporter of rat caudate membranes. The experiment is classed as cell membranes, Membrane.
The target of experiment [2] is Sodium-dependent dopamine transporter (Rattus norvegicus, UniProt P23977). Kind of experiment: Displacement of [125I]RTI-55 from Dopamine transporter of rat caudate membranes. The experiment is classed as cell membranes, Membrane.
Sequence of Sodium-dependent dopamine transporter (P23977 whole entry): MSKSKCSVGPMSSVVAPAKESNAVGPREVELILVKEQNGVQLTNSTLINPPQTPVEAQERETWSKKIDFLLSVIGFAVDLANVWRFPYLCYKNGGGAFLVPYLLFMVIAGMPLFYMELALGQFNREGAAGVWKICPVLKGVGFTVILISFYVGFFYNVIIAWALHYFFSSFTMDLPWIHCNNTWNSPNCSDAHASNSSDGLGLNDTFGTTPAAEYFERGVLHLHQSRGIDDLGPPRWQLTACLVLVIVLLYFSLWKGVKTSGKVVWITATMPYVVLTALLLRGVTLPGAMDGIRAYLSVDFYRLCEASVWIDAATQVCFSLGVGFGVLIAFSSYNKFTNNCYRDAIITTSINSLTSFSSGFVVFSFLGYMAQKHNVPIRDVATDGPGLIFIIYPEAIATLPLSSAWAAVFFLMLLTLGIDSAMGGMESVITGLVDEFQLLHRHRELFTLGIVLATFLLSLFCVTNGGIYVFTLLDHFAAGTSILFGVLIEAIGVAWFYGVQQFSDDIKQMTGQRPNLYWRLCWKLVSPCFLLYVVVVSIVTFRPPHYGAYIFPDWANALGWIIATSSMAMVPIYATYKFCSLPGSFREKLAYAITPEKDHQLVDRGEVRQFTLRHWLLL

Broadly, the Ki is a measure of affinity in units of concentration, obtained from inhibition or displacement. High values mean lower affinity, low ones higher affinity.

Sequence of Sodium-dependent serotonin transporter (P31652 whole entry): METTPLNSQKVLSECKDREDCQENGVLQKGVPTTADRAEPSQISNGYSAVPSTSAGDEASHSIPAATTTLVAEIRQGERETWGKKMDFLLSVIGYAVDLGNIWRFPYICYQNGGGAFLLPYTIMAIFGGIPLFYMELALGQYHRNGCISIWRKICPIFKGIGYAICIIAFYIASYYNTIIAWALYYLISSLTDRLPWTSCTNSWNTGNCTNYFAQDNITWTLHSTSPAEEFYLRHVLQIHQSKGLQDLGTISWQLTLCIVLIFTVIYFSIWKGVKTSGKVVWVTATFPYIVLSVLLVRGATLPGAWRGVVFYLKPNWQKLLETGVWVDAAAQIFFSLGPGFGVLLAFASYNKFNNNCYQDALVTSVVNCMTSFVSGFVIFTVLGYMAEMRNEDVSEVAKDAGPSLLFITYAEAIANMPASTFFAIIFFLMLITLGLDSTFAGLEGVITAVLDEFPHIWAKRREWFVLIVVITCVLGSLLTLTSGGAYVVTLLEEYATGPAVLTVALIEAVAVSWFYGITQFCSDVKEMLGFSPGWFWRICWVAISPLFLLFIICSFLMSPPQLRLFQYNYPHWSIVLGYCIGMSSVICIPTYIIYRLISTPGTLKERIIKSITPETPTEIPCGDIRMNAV

As for `c1ccc(-c2nc(SC(c3ccccc3)c3ccccc3)c3ccccc3n2)cc1`, the inhibition constant Ki in experiment [1] and in experiment [2] was greater than 10 µM in each case.

Consider `C[C@@H](Nc1nc(-c2ccccc2)nc2ccccc12)c1ccccc1`, for which the Ki in experiment [1] was greater than 10 µM; in experiment [2], 6.1 µM.

Turning to `CN(C)CCCSc1nc(-c2ccccc2)nc2ccccc12`, the results for the Ki in experiment [1] and in experiment [2] were 9.6 µM and 6.1 µM, respectively.

For `c1ccc(-c2nc(NC(c3ccccc3)c3ccccc3)c3ccccc3n2)cc1`, the Ki was greater than 10 µM in experiment [1] and 0.53 µM in experiment [2].

As for `c1ccc(-c2nc(NCCC(c3ccccc3)c3ccccc3)c3ccccc3n2)cc1`, the Ki in experiment [1] and in experiment [2] was greater than 10 µM each time.

For the molecule `CN1C2CCC1CC(Oc1nc(-c3ccccc3)nc3ccccc13)C2` (stereo not drawn), the inhibitory constant (Ki) in experiment [1] and in experiment [2] was 5.1 µM in each case.

For the molecule `c1ccc(CNc2nc(-c3ccccc3)nc3ccccc23)cc1`, the Ki is greater than 10 µM in experiment [1] and 7.9 µM in experiment [2].

For `C[C@H](Nc1nc(-c2ccccc2)nc2ccccc12)c1ccccc1`, the Ki in experiment [1] was greater than 10 µM; in experiment [2], 1.8 µM.

As for `CN1CCC(Oc2nc(-c3ccccc3)nc3ccccc23)CC1`, the Ki is greater than 10 µM in experiment [1] and 9.1 µM in experiment [2].

With `CN(C)CCCOc1nc(-c2ccccc2)nc2ccccc12`, in experiment [1], the Ki is greater than 10 µM.

In the case of `c1ccc(-c2nc(NCC(c3ccccc3)c3ccccc3)c3ccccc3n2)cc1`, the Ki in experiment [1] is greater than 10 µM; in experiment [2] it was 5.4 µM.

For the molecule `CN(C)CCCNc1nc(-c2ccccc2)nc2ccccc12`, the Ki in experiment [1] and in experiment [2] was greater than 10 µM each time.
